Laboratory results: patent publication US20110135738A1, “SINGLE DOSAGE PHARMACEUTICAL FORMULATION COMPRISING EPROSARTAN MESYLATE” (LEK Pharmaceutical S. D. D., priority 2008, published 2011)

Columns and labels:
[1] = X-ray diffraction analysis of eprosartan mesylate form / physical stability; type: physicochemical; details: ambient temperature and humidity
Experimental: During the dry granulation processes using different excipients from the list above, physical stability of the eprosartan mesylate anhydrate was investigated. […] The final tablet form and placebo powder were analyzed by X-ray diffraction (XRD) pattern to confirm presence of anhydrous form of eprosartan mesylate.
Diffractograms were collected on X′Pert PRO MPD diffractometer using CuKα radiation.
Data were recorded from 2 do 40° 2θ; in steps of 0.033° 2θ; with the integration times 50 s (routine testing) and from 4 do 20° 2θ; in steps of 0.033° 2θ; with the integration times 2000 s (to achieve lower LOD). The range for measurements with longer integration times was chosen according to the known diffractograms of eprosartan mesylate crystalline forms, which all have characteristic peaks in the carefully measured range between 4 and 20° 2theta.

[2] = oral; cited from earlier work
[3] = Flowability of powder / final mixture; type: physicochemical; details: drug per se
[4] = cited from earlier work
[5] = at RH over 60%; cited from earlier work

physical and chemical stability of anhydrous form [1]: physically and chemically stable | flowability of eprosartan mesylate [3]: below 0.15 g/sec
SMILES: CCCCc1ncc(/C=C(\Cc2cccs2)C(=O)O)n1Cc1ccc(C(=O)O)cc1.CS(=O)(=O)O [Eprosartan mesylate, (E)-α-[2-n-butyl-1-[(4-carboxyphenyl)methyl]-1H-imidazol-5-yl]methylene-2-thiophenepropionic acid monomethanesulfonate]
bioavailability [2]: 13% | permeability across the intestinal epithelium [4]: low permeability | interconversion of anhydrous form [5]: interconverts to eprosartan mesylate mono- and later to dihydrate
